Measured values taken from ChEMBL document CHEMBL3297717, “Synthesis and potent ionophoric activity of a squaramide-linked bis(choloyl) conjugate” (Bioorg Med Chem Lett, 2014).
Calls of active or inactive are those of the source. The rule behind the calls is not given here.

Key:
[1] = Ionophoric activity across egg-yolk L-alpha-phosphatidylcholine-based liposomal membrane assessed as induction of pH discharge in membrane by measuring initial rate constant after 21 mins by Hill plot analysis
[2] = Ionophoric activity across egg-yolk L-alpha-phosphatidylcholine-based liposomal membrane assessed as induction of pH discharge in membrane at 3 mol% after 20 mins by pyramine dye-based fluorescence assay in presence of NaBr
[3] = Ionophoric activity across egg-yolk L-alpha-phosphatidylcholine-based liposomal membrane assessed as induction of pH discharge in membrane at 3 mol% after 20 mins by pyramine dye-based fluorescence assay in presence of LiCl
[4] = Ionophoric activity across egg-yolk L-alpha-phosphatidylcholine-based liposomal membrane assessed as induction of pH discharge in membrane at 3 mol% after 20 mins by pyramine dye-based fluorescence assay in presence of RbCl
[5] = Ionophoric activity across egg-yolk L-alpha-phosphatidylcholine-based liposomal membrane assessed as induction of pH discharge in membrane at 3 mol% after 20 mins by pyramine dye-based fluorescence assay in presence of NaI
[6] = Ionophoric activity across egg-yolk L-alpha-phosphatidylcholine-based liposomal membrane assessed as induction of pH discharge in membrane after 21 mins by pyramine dye-based fluorescence assay
[7] = Ionophoric activity across egg-yolk L-alpha-phosphatidylcholine-based liposomal membrane dispersed in HEPES buffer containing Na2SO4 assessed as chloride efflux at 3 mol% after 5 mins
[8] = Ionophoric activity across egg-yolk L-alpha-phosphatidylcholine-based liposomal membrane assessed as chloride efflux after 5 mins
[9] = Ionophoric activity across egg-yolk L-alpha-phosphatidylcholine-based liposomal membrane assessed as induction of pH discharge in membrane at 3 mol% after 20 mins by pyramine dye-based fluorescence assay in presence of NaCl
[10] = Ionophoric activity across egg-yolk L-alpha-phosphatidylcholine-based liposomal membrane assessed as induction of pH discharge in membrane at 3 mol% after 20 mins by pyramine dye-based fluorescence assay in presence of NaNO3
[11] = Ionophoric activity across egg-yolk L-alpha-phosphatidylcholine-based liposomal membrane assessed as induction of pH discharge in membrane at 3 mol% after 20 mins by pyramine dye-based fluorescence assay in presence of KCl
[12] = Ionophoric activity across egg-yolk L-alpha-phosphatidylcholine-based liposomal membrane assessed as induction of pH discharge in membrane at 1 to 5 mol% after 21 mins by pyramine dye-based fluorescence assay
[13] = Ionophoric activity across egg-yolk L-alpha-phosphatidylcholine-based liposomal membrane assessed as induction of pH discharge in membrane at 3 mol% after 20 mins by pyramine dye-based fluorescence assay in presence of CsCl

Kin [1] | Activity [2] | Activity [3] | Activity [4] | Activity [5] | EC50 [6] [mol%] | Activity [7] | Activity [8] | Activity [9] | Activity [10] | Activity [11] | Activity [12] | Activity [13] | SMILES
5.52 ×10⁻² /min |  |  |  |  |  |  |  |  |  |  |  |  | C[C@H](CCC(=O)N[C@@H](CCCCN)C(=O)NCc1ccc(CNC(=O)[C@H](CCCCN)NC(=O)CC[C@@H](C)[C@H]2CC[C@H]3[C@@H]4[C@H](O)C[C@@H]5C[C@H](O)CC[C@]5(C)[C@H]4C[C@H](O)[C@]23C)cc1)[C@H]1CC[C@H]2[C@@H]3[C@H](O)C[C@@H]4C[C@H](O)CC[C@]4(C)[C@H]3C[C@H](O)[C@]12C
2.23 ×10⁻² /min |  |  |  |  |  |  |  |  |  |  |  |  | C[C@H](CCC(=O)NCc1ccc(CNC(=O)CC[C@@H](C)[C@H]2CC[C@H]3[C@@H]4[C@H](O)C[C@@H]5C[C@H](O)CC[C@]5(C)[C@H]4C[C@H](O)[C@]23C)cc1)[C@H]1CC[C@H]2[C@@H]3[C@H](O)C[C@@H]4C[C@H](O)CC[C@]4(C)[C@H]3C[C@H](O)[C@]12C
0.6 min⁻¹ | inactive | Active | Active | inactive | 3.82 | Active | Dose-dependent effect | Active | inactive | Active | Active | Active | C[C@H](CCC(=O)Nc1ccc(Nc2c(Nc3ccc(NC(=O)CC[C@@H](C)[C@H]4CC[C@H]5[C@@H]6[C@H](O)C[C@@H]7C[C@H](O)CC[C@]7(C)[C@H]6C[C@H](O)[C@]45C)cc3)c(=O)c2=O)cc1)[C@H]1CC[C@H]2[C@@H]3[C@H](O)C[C@@H]4C[C@H](O)CC[C@]4(C)[C@H]3C[C@H](O)[C@]12C
